In the NIST ThermoML archive (doi:10.1021/je100078w):

Tests used:
[1] = Liquid
[2] = wn = mass fraction of the nth substance listed; conditions: 101 kPa, Liquid

CN(CCO)CCO [N-methyldiethanolamine]
[1], 101.33 kPa
Conditions	mass density [kg/m3]
303.15 K	1033.74
313.15 K	1026.72
323.15 K	1019.48
333.15 K	1012.32
343.15 K	1002.25

[1], 101.33 kPa, Concentric cylinders viscometry
Conditions	viscosity [mPa·s]
303.15 K	57.69
313.15 K	34.79
323.15 K	21.88
333.15 K	14.6
343.15 K	9.855

CCCCn1cc[n+](C)c1.F[B-](F)(F)F [1-butyl-3-methylimidazolium tetrafluoroborate] + O
[2], w1 = 0.2998
Conditions	mass density [kg/m3]	viscosity [mPa·s]
303.15 K	1045.35	1.292
313.15 K	1039.84	1.046
323.15 K	1033.76	0.8731
333.15 K	1027.74	0.7473
343.15 K	1021.18	0.6549

C[NH+](CCO)CCO.C[NH+](CCO)CCO.C[NH+](CCO)CCO.O=P([O-])([O-])[O-] [2-hydroxy-N-(2-hydroxyethyl)-N-methylethanaminium phosphate]
[1], 101.33 kPa
Conditions	mass density [kg/m3]	viscosity [mPa·s]
303.15 K	1215.95	–
313.15 K	1208.49	2483
323.15 K	1200.88	1426
333.15 K	1193.23	822.5
343.15 K	1185.52	385.4

C[NH+](CCO)CCO.C[NH+](CCO)CCO.C[NH+](CCO)CCO.O=P([O-])([O-])[O-] [2-hydroxy-N-(2-hydroxyethyl)-N-methylethanaminium phosphate] + O
[2]
Conditions	mass density, 303.15 K [kg/m3]	mass density, 313.15 K [kg/m3]	mass density, 323.15 K [kg/m3]	mass density, 333.15 K [kg/m3]	mass density, 343.15 K [kg/m3]	viscosity, 303.15 K [mPa·s]	viscosity, 313.15 K [mPa·s]	viscosity, 323.15 K [mPa·s]	viscosity, 333.15 K [mPa·s]	viscosity, 343.15 K [mPa·s]
w1 = 0.3001	–	–	–	–	–	2.63	2.125	1.805	1.594	1.455
w1 = 0.3007	1075.32	1070.31	1063.44	1055.39	1045.38	–	–	–	–	–

CN(CCO)CCO [N-methyldiethanolamine] + O
[2], w1 = 0.3002
Conditions	mass density [kg/m3]	viscosity [mPa·s]
303.15 K	1022.9	2.612
313.15 K	1018	1.937
323.15 K	1012.96	1.505
333.15 K	1006.92	1.207
343.15 K	–	0.8944

F[B-](F)(F)F.[NH3+]CCO [2-hydroxyethanaminium tetrafluoroborate]
[1], 101.33 kPa
Conditions	mass density [kg/m3]
303.15 K	1490.57
313.15 K	1482.62
323.15 K	1474.94
333.15 K	1467.85
343.15 K	1464.59

[1], 101.33 kPa, Concentric cylinders viscometry
Conditions	viscosity [mPa·s]
303.15 K	59.39
313.15 K	48.68
333.15 K	32.85
343.15 K	27.84

C[NH+](CCO)CCO.[Cl-] [2-hydroxy-N-(2-hydroxyethyl)-N-methylethanaminium chloride]
[1], 101.33 kPa
Conditions	mass density [kg/m3]	viscosity [mPa·s]
303.15 K	1180.42	512.1
313.15 K	1174.71	278.2
323.15 K	1169.24	164.2
333.15 K	1163.75	104.1
343.15 K	1158.29	70.45

CCCCn1cc[n+](C)c1.F[B-](F)(F)F [1-butyl-3-methylimidazolium tetrafluoroborate] + OCCN(CCO)CCO
[2], w2 = 0
Conditions	mass density [kg/m3]	viscosity [mPa·s]
303.15 K	1195.7	68.9
313.15 K	1188.62	44.73
323.15 K	1181.59	30.81
333.15 K	1174.6	22.28
343.15 K	1167.67	16.75

CCCCn1cc[n+](C)c1.F[B-](F)(F)F [1-butyl-3-methylimidazolium tetrafluoroborate]
[1], 101.33 kPa
Conditions	mass density [kg/m3]	viscosity [mPa·s]
303.15 K	1195.7	68.9
313.15 K	1188.62	44.73
323.15 K	1181.59	30.81
333.15 K	1174.6	22.28
343.15 K	1167.67	16.75

CN(CCO)CCO.CN(CCO)CCO.O=S(=O)(O)O [2,2'-(methylimino)diethanol sulfate (2:1)]
[1], 101.33 kPa
Conditions	mass density [kg/m3]	viscosity [mPa·s]
303.15 K	1282.49	–
313.15 K	1276.83	1858
323.15 K	1271.25	990.8
333.15 K	1265.72	571.2
343.15 K	1260.24	350.4

C[NH+](CCO)CCO.F[B-](F)(F)F
[1], 101.33 kPa
Conditions	mass density [kg/m3]	viscosity [mPa·s]
303.15 K	1425.56	208.8
313.15 K	1418.1	117.7
323.15 K	1410.63	71.79
333.15 K	1403.2	46.85
343.15 K	1395.85	32.35

C[NH+](CCO)CCO.[Cl-] [2-hydroxy-N-(2-hydroxyethyl)-N-methylethanaminium chloride] + O
[2]
Conditions	mass density, 303.15 K [kg/m3]	mass density, 313.15 K [kg/m3]	mass density, 323.15 K [kg/m3]	mass density, 333.15 K [kg/m3]	mass density, 343.15 K [kg/m3]	viscosity, 303.15 K [mPa·s]	viscosity, 313.15 K [mPa·s]	viscosity, 323.15 K [mPa·s]	viscosity, 333.15 K [mPa·s]	viscosity, 343.15 K [mPa·s]
w1 = 0.3001	–	–	–	–	–	1.539	1.265	1.067	0.8862	0.7911
w1 = 0.3006	1058.44	1053.89	1049.23	1043.31	1037.05	–	–	–	–	–

NCCO [2-aminoethan-1-ol] + O
[2], w1 = 0.3002
Conditions	mass density [kg/m3]	viscosity [mPa·s]
303.15 K	1013.02	2.093
313.15 K	1007.98	1.603
323.15 K	1003.42	1.271
333.15 K	997.157	1.037
343.15 K	989.924	0.8681

CN(CCO)CCO.CN(CCO)CCO.O=S(=O)(O)O [2,2'-(methylimino)diethanol sulfate (2:1)] + O
[2]
Conditions	mass density, 303.15 K [kg/m3]	mass density, 313.15 K [kg/m3]	mass density, 323.15 K [kg/m3]	mass density, 333.15 K [kg/m3]	mass density, 343.15 K [kg/m3]	viscosity, 303.15 K [mPa·s]	viscosity, 313.15 K [mPa·s]	viscosity, 323.15 K [mPa·s]	viscosity, 333.15 K [mPa·s]	viscosity, 343.15 K [mPa·s]
w1 = 0.2999	1091.95	1087.46	1082.24	1075.89	1068.32	–	–	–	–	–
w1 = 0.3001	–	–	–	–	–	1.795	1.446	1.196	1.012	0.872

OCCN(CCO)CCO [triethanolamine] + O
[2], w1 = 0.3
Conditions	mass density [kg/m3]	viscosity [mPa·s]
303.15 K	1042.75	2.354
313.15 K	1037.93	1.799
323.15 K	1032.21	1.425
333.15 K	1023.74	1.172
343.15 K	1011.68	0.9591

F[B-](F)(F)F.[NH3+]CCO [2-hydroxyethanaminium tetrafluoroborate] + O
[2], w1 = 0.3004
Conditions	mass density [kg/m3]	viscosity [mPa·s]
303.15 K	1116.48	1.007
313.15 K	1110.85	0.8573
323.15 K	1104.95	0.7412
333.15 K	1098.99	0.6743
343.15 K	1093.41	0.5896

OCCN(CCO)CCO [triethanolamine] + CCCCn1cc[n+](C)c1.F[B-](F)(F)F
[2]
Conditions	mass density, 303.15 K [kg/m3]	mass density, 313.15 K [kg/m3]	mass density, 323.15 K [kg/m3]	mass density, 333.15 K [kg/m3]	mass density, 343.15 K [kg/m3]	viscosity, 303.15 K [mPa·s]	viscosity, 313.15 K [mPa·s]	viscosity, 323.15 K [mPa·s]	viscosity, 333.15 K [mPa·s]	viscosity, 343.15 K [mPa·s]
w1 = 0.1998	1175.8	1168.63	1161.5	1154.44	1147.42	57.94	35.89	24.02	17.13	12.82
w1 = 0.3987	1161.1	1154.41	1146.93	1139.88	1132.87	69.54	39.71	25.08	17.08	12.32
w1 = 0.5005	1150.08	1142.89	1135.48	1128.12	1120.99	86.62	47.22	28.82	19.11	13.48
w1 = 0.6	1146.42	1139.61	1132.76	1125.89	1119	116.5	60.67	36.1	23.35	16.14
w1 = 0.7999	1129.56	1123.21	1116.73	1110.16	1103.54	186.3	99.43	54.02	33.63	22.33
w1 = 1	1114.43	1108.34	1102.23	1095.96	1089.6	398.2	195.9	103.6	60.81	37.94

C[NH+](CCO)CCO.F[B-](F)(F)F + O
[2]
Conditions	mass density, 303.15 K [kg/m3]	mass density, 313.15 K [kg/m3]	mass density, 323.15 K [kg/m3]	mass density, 333.15 K [kg/m3]	mass density, 343.15 K [kg/m3]	viscosity, 303.15 K [mPa·s]	viscosity, 313.15 K [mPa·s]	viscosity, 323.15 K [mPa·s]	viscosity, 333.15 K [mPa·s]	viscosity, 343.15 K [mPa·s]
w1 = 0.3001	1084.71	1075.11	1067.02	1058.01	1047.87	–	–	–	–	–
w2 = 0.3001	–	–	–	–	–	1.245	1.041	0.8831	0.7874	0.7196

OCCN(CCO)CCO [triethanolamine]
[1], 101 kPa
Conditions	mass density [kg/m3]	viscosity [mPa·s]
303.15 K	1114.43	398.2
313.15 K	1108.34	195.9
323.15 K	1102.23	103.6
333.15 K	1095.96	60.81
343.15 K	1089.6	37.94
